Data set [1] has as its system Hepatoma cell line HepG2. As to the kind of experiment: CellTiter-Blue cell proliferation and viability assay, HepG2. It counts as cell-based. The following applies: Homo sapiens; HepG2, 1% FCS, 72 hours; read-out: IC50 of agent as single agent. On the procedure: (§1) During proliferation assays, all cells were grown in medium containing 1% FCS. […] Treatment was started by the addition of 50 μl of a 2× concentrated drug solution to a final volume of 100 μl. […] After incubating for 72 hours at 37° C., 10 μl of a 1⁄2 dilution of CellTiter-Blue reagent was added to each well and the plates were returned to the incubator for an additional 4 hours. The fluorescence intensity from the CellTiter-Blue reagent is proportional to the number of viable cells and data were recorded (544Ex/590Em) using a POLARstar OMEGA microplate reader (BMG Labteck Sarl). A background control without cells was used as a blank. The positive control of the assay corresponds to the cell proliferation obtained in the absence of drug treatment (100% proliferation). Each sample was done in duplicate, the […] values were transferred to an excel file, the average and standard deviation of the duplicates were calculated and expressed as a percentage of the proliferation obtained in absence of treatment. The results presented are representative of a minimum of 3 experiments.
(In general: The colour change of resazurin is a common sign of viable cells or microbes.)

Data set [2] has as its system Hepatoma cell line PLC-PRF5. As to the kind of experiment: CellTiter-Blue cell proliferation and viability assay, PLC-PRF5. It counts as cell-based. As to conditions: Homo sapiens, PLC-PRF-5; PLC-PRF5, 1% FCS, 72 hours; read-out: IC50 of agent as single agent. The protocol:
as §1

Data set [3] deals with advanced Hepatocellular carcinoma (BCLC stage C). As to conditions: BCLC C patients, first line sorafenib; cited from earlier work.
For data set [4] the following is noted: clinically achievable concentration; read-out: Approximate Cmax measured in plasma; cited from earlier work.

Structures are written as SMILES.

On to `Cc1ccc(NC(=O)c2ccc(CN3CCN(C)CC3)cc2)cc1Nc1nc(-c2cccnc2)cs1` [masitinib mesilate], for which the IC50 in data set [1] and in data set [2] was greater than 5 µM throughout.

In the case of `CNC(=O)c1cc(Oc2ccc(NC(=O)Nc3ccc(Cl)c(C(F)(F)F)c3)cc2)ccn1` [sorafenib], in data set [3], the “median OS” value is recorded as 9.5 months. Take `COc1cc([C@@H]2c3cc4c(cc3[C@@H](O[C@@H]3O[C@@H]5CO[C@@H](C)O[C@H]5[C@H](O)[C@H]3O)[C@H]3COC(=O)[C@H]23)OCO4)cc(OC)c1O` [VP-16]: the IC50 (in general, the concentration that inhibits the measured activity by half) was greater than 100 µM in data set [1] and 50 µM in data set [2]. In data set [4], the Cmax – broadly, the maximum level reached in the sampled fluid or tissue – is roughly 34 µM. Take `CC[C@]1(O)C[C@H]2CN(CCc3c([nH]c4ccccc34)[C@@](C(=O)OC)(c3cc4c(cc3OC)N(C=O)[C@H]3[C@@](O)(C(=O)OC)[C@H](OC(C)=O)[C@]5(CC)C=CCN6CC[C@]43[C@@H]65)C2)C1` [VINC]: the IC50 in data set [1] and in data set [2] was 0.1 to 1 µM in each case. Consider `Nc1ccn([C@@H]2O[C@H](CO)[C@@H](O)C2(F)F)c(=O)n1` [GCB, 2′,2′,-dofluoro-2′,-deoxycytidine], for which the IC50 in data set [1] is greater than 100 µM. The same measure, in the same setting: in the case of `COc1cccc2c1C(=O)c1c(O)c3c(c(O)c1C2=O)C[C@@](O)(C(=O)CO)C[C@@H]3O[C@H]1C[C@H](N)[C@H](O)[C@H](C)O1` [DOX] it was 5 µM. On to `CCc1c2c(nc3ccc(OC(=O)N4CCC(N5CCCCC5)CC4)cc13)-c1cc3c(c(=O)n1C2)COC(=O)[C@]3(O)CC` [CPT-11], for which the IC50 in data set [1] and in data set [2] was 100 µM throughout. Moreover, the Cmax in data set [4] is 1 to 10 µM.

Values taken from US20160128999A1 (AB SCIENCE, priority 2014, published 2016).
